In patent EP0011608A1, “Novel allenic amine and acid addition salts thereof, a process for their preparation, pharmaceutical preparations comprising them and the use of these compounds in the preparation of pharmaceutical compositions” (priority 1978, dated 1980):

What was measured:
Assay type in all cases: in vivo
monoamine oxidase enzyme [1] = target: T1, monoamine oxidase enzyme (Mus musculus, UniProt Q64133); test: MAO inhibition in mouse brain slices after intraperitoneal injection: deamination of [14C]-5-hydroxytryptamine; details: for inhibition of the MAO activity against 5-hydroxytryptamine (in words): in vivo; for ED50: effective dose for 50 % inhibition
T1 construct: from tissue; host or cells: mouse brain slices (hypothalamus, thalamus, midbrain), ex vivo after i.p. dosing
T1 sequence (Q64133 1-526): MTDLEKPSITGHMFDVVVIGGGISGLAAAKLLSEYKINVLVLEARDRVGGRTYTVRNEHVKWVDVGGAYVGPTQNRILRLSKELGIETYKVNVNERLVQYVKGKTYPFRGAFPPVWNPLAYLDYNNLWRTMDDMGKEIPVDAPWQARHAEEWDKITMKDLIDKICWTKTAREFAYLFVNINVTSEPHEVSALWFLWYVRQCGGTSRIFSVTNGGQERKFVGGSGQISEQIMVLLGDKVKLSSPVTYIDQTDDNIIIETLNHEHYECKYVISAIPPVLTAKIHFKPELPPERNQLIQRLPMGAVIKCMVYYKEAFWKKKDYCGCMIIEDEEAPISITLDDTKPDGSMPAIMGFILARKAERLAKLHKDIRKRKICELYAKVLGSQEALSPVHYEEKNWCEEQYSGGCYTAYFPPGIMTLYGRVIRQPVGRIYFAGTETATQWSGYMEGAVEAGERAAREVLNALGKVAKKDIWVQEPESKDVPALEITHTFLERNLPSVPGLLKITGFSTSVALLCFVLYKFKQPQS
Excerpt: (§1) It is not possible by experimental means to induce depressions in laboratory animals. In order to evaluate a possible antidepressive effect of new substances biochemical-pharmacological test methods must be resorted to. One such method, which seems to give good indication of the potential antidepressive effects of the test substances, is a test for monoamine oxidase enzyme inhibiting activity. The deamination of [^3H]phenethylamine, [^3H]tyramine, and [^14C]-5-hydroxytryptamine by brain slices was determined according to the following method.
(§2) Slices (100 mg) of the central part of the mouse brain including hypothalamus, thalamus, and midbrain were incubated for 5 min with 1 x 10^-7 M of the labeled substrate in 2.0 ml of Krebs-Henseleit's buffer, pH 7.4, containing […] of glucose, The slices were then homogenized in an all-glass homogenizer with 1.0 ml of 1 N HCl containing carrier amounts ([…]) of the nonlabeled amine and its deaminated acid product. An aliquot of 1.1 ml of a brain homogenate in 10 vol of 1 N HCl containing the substrate and product carriers was added to 0.5 ml of the incubation medium. The brain homogenate was added in order to facilitate the extraction of tyramine and 5-HT. The acid and neutral products were extracted into 6.0 ml of ethyl acetate by vigorous shaking for 10 s. After centrifugation, 4.0 ml of the organic phase was taken for determination of radicactivity, The remaining ethyl acetate was removed; the water phase was made alkaline with solid sodium carbonate and 1.0 ml of 0.5 M borate buffer, pH 10. The amine was then extracted into 6.0 ml of ethyl acetate and 4.0 ml of the organic phase was taken for the assay. The deamination of [^3H]tyramine and [^14C]-5-HT was determined simultaneously by utilizing the double-labeling technique. (S.B. Ross, A.L. Renyi, and S.-O. Ögren, Eur. J. Pharmacol., 17, 107 (1972)).
(§3) Inhibition of the MAO activity in the brain slices was determined 1 h after the intraperitoneal injection of the test compound. The inhibition was expressed in percent and calculated on the total formation of acid and neutral products formed in the brain slices of animals treated with the test compounds or with saline.

monoamine oxidase enzyme [2] = test: MAO inhibition in mouse brain slices after intraperitoneal injection: deamination of [3H]tyramine; details: for ED50: deamination of tyramine, effective dose for 50 % inhibition, 1 h after adm.; for inhibition of the MAO activity against tyramine (in words): mouse, in vivo
Excerpt: as §1, §2, §3

monoamine oxidase enzyme [3] = target: T2, monoamine oxidase enzyme (Mus musculus, UniProt Q8BW75); test: MAO inhibition in mouse brain slices after intraperitoneal injection: deamination of [3H]phenethylamine; details: for inhibition at 4 mg/kg: dose 4 mg/kg intraperitoneal; for inhibition at 32 mg/kg: dose 32 mg/kg intraperitoneal; for ED50: effective dose for 50 % inhibition; for inhibition at 29 mg/kg: dose 29 mg/kg intraperitoneal
T2 construct: from tissue; host or cells: mouse brain slices (hypothalamus, thalamus, midbrain), ex vivo after i.p. dosing
T2 sequence (Q8BW75 1-520): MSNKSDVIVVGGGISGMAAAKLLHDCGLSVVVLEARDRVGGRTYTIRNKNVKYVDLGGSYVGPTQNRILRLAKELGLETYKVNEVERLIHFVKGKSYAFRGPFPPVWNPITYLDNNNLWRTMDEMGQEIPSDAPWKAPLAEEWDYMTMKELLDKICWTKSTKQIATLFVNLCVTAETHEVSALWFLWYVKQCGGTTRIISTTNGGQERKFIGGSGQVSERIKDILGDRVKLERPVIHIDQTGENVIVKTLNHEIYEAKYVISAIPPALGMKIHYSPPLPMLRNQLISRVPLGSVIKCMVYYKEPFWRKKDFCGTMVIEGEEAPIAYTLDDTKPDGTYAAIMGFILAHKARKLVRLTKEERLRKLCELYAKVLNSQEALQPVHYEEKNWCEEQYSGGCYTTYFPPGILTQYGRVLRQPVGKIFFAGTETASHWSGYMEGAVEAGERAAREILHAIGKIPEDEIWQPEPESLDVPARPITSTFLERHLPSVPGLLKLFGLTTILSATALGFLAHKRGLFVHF
Excerpt: as §1, §2
[…] The inhibition was expressed in percent and calculated on the total formation of acid and neutral products formed in the brain slices of animals treated with the test compounds or with saline.

[4] = mouse, ip, deamination of 5-hydroxytryptamine, 1 h after adm.
[5] = mouse, ip, deamination of phenethylamine, 1 h after adm.
[6] = mouse, ip, deamination of phenethylamine, 24 h after adm.
[7] = comparison of ACS 104 with ACS 64

For C=C=CCN(C)Cc1ccccc1.Cl [ACS 64, N-2,3-butadienyl--N-methylbenzylamine hydrochloride, reference compound], the “inhibition of the MAO activity against 5-hydroxytryptamine (in words)” value (monoamine oxidase enzyme [1]; mouse) was “only weak inhibitors”, the inhibition at 32 mg/kg (monoamine oxidase enzyme [1]; mouse, ip, deamination of 5-hydroxytryptamine, dose 32 mg/kg intraperitoneal, 1 h after adm.) was 16 ± 2% and the ED50 (monoamine oxidase enzyme [1]; [4]) was over 150 µmol/kg. The ED50 (monoamine oxidase enzyme [2]) was over 150 µmol/kg, the “inhibition of the MAO activity against tyramine (in words)” value (monoamine oxidase enzyme [2]) was “only weak inhibitors” and the inhibition at 4 mg/kg (monoamine oxidase enzyme [3]; [5]) was 31 ± 7%. The inhibition at 32 mg/kg (monoamine oxidase enzyme [3]; [5]) was 86 ± 3%, the inhibition at 32 mg/kg (monoamine oxidase enzyme [3]; [6]) was 70 ± 1% and the ED50 (monoamine oxidase enzyme [3]; [5]) was 50 µmol/kg.

For C=C=C(CN)Cc1ccccc1.Cl [ACS 104, 2-benzyl-2,3-butadienamine hydrochloride], the “potency relative to the prior art compound, MAO activity against 5-hydroxytryptamine” value (monoamine oxidase enzyme [1]; [7]) was “somewhat, more potent than the prior art compound”, the “inhibition of the MAO activity against 5-hydroxytryptamine (in words)” value (monoamine oxidase enzyme [1]; mouse) was “only weak inhibitors” and the inhibition at 29 mg/kg (monoamine oxidase enzyme [1]; mouse, ip, deamination of 5-hydroxytryptamine, dose 29 mg/kg intraperitoneal, 1 h after adm.) was 48 ± 2%. For the same molecule, the ED50 (monoamine oxidase enzyme [1]; [4]) was about 150 µmol/kg, the “potency relative to the prior art compound, MAO activity against tyramine” value (monoamine oxidase enzyme [2]; [7]) was “somewhat, more potent than the prior art compound” and the ED50 (monoamine oxidase enzyme [2]) was under 150 µmol/kg. The “inhibition of the MAO activity against tyramine (in words)” value (monoamine oxidase enzyme [2]) was “only weak inhibitors”, the “potency relative to the prior art compound, inhibition of the MAO activity against phenethylamine” value (monoamine oxidase enzyme [3]; comparison of ED50-values of ACS 104 and ACS 64) was “about three times as potent as the prior art compound” and the inhibition at 1 mg/kg (monoamine oxidase enzyme [3]; mouse, ip, deamination of phenethylamine, dose 1 mg/kg intraperitoneal, 1 h after adm.) was 19 ± 3%. It also gave an inhibition at 4 mg/kg (monoamine oxidase enzyme [3]; [5]) of 67 ± 2%, an inhibition at 29 mg/kg (monoamine oxidase enzyme [3]; [5]) of 92 ± 1% and an inhibition at 29 mg/kg (monoamine oxidase enzyme [3]; [6]) of 39 ± 2%. It also gave an ED50 (monoamine oxidase enzyme [3]; [5]) of 16 µmol/kg.
